The target of data set [1] is T1, human muscarinic M3 receptor (Homo sapiens, UniProt P20309).
T1 construct: expressed in transfected cells; host or cells: BSR-M3H cells (membrane preparation)
Briefly: [3H]-methylscopolamine binding to recombinant human M3 receptors. The note with it: BSR-M3H cell membranes, 60 minutes at 25° C. How it is done: WO 94/11337 discloses that the active metabolite has high affinity to muscarinic receptors in the guinea-pig bladder. Different compounds of the present invention were tested in a well established standardized assay, measuring the binding of [^3H]-methylscopolamine to recombinant human M3 receptors. BSR-M3H cells transfected with a plasmid encoding the human muscarinic M3 receptor were used to prepare membranes in modified Tris-HCl pH 7.4 buffer using standard techniques. An aliquot of the membrane preparation was incubated with [^3H]-methylscopolamine in the presence or absence of different concentrations of several compounds of the invention for 60 minutes at 25° C. Nonspecific binding was estimated in the presence of 1 μM atropine. Membranes were filtered and washed three times and the filters were counted to determine the amount of [^3H]-methylscopolamine specifically bound.

Data set [2] can be described thus: Penetration through human skin, flow through cell. It counts as in vitro ADME. The note with it: human skin 200 μm thick, 32° C., acceptor phosphate buffer pH 6.2. The method, then:
Different compounds of the invention were tested for their ability to penetrate the human skin (200 μm thick) in the “Flow through cell” at 32° C. according to Tiemessen et al. (Acta Pharm. Technol. 1998; 34:99-101). Phosphate buffer (pH 6.2) was used as the acceptor medium. Samples were drawn at different time points and analysed by RP-HPLC with UV detection (220 nm). Permeation profiles were plotted and mean flux rates of different substances were calculated by linear regression analysis.

A short description of data set [3]: Incubation of labelled substrates: metabolic degradation to the carboxylic acid. The data set is classed as in vitro ADME, human. The note with it: 3 hrs at 37.0° C., 40 μM; compared with unlabelled hydroxy metabolite. The method, then: The metabolic degradation of the unlabelled hydroxy metabolite (i.e. Intermediate D) and the deuteriated hydroxy-metabolite (Intermediate d2B) were compared in vitro. Used were the respective enantiomers and the racemates.
The hydroxy metabolite and the deuteriated hydroxy-metabolite expressed significant differences in the rate to produce the corresponding carboxylic acid.
The measurement was performed with an incubation time of 3 hrs at 37.0° C. in a concentration of 40 μM.

A further data set concerns guinea-pig ileum. The experiment in a line: Anticholinergic activity in guinea-pig ileum (methacholine-induced contractile response). The data set is classed as cell-based. The note with it: Cavia porcellus; methacholine 0.6 μM, Krebs solution pH 7.4, 32° C. How it is done:
The compounds were tested for their anticholinergic activity in a standard tissue assay, the guinea-pig ileum. A segment of ileum was obtained from Duncan Hartley guinea-pigs which were scarified by cervical dislocation. The tissue was placed under 1 g tension in a 10 ml bath containing Krebs, solution (pH 7.4, 32° C.) and the concentration-dependent ability of different compounds to reduce the methacholine-induced (0.6 μM) contractile response was recorded.

Data set [4] concerns urinary bladder over the effect on the salivation. The note with it: preclinical, Nilvebrant et al. 1997; cited from earlier work.

T1 sequence (P20309 whole entry): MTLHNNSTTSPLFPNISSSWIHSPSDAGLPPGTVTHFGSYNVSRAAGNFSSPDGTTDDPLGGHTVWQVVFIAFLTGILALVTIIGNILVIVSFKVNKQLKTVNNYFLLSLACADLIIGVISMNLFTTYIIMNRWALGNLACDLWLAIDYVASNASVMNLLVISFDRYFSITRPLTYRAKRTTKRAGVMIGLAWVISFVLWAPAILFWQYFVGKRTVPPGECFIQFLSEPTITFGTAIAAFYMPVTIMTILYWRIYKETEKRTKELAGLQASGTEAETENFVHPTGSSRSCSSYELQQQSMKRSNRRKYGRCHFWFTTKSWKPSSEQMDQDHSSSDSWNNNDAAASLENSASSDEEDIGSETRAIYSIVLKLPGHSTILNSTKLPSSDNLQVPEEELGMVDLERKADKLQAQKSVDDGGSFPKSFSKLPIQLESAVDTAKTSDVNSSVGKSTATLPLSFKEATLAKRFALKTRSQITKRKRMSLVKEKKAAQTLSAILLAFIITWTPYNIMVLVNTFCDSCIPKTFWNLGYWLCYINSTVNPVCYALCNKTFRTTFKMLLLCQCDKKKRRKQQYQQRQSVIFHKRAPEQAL

In the case of `CC(=O)OCc1ccc(OC(=O)c2ccccc2)c(C(CCN(C(C)C)C(C)C)c2ccccc2)c1` (racemic) [AcO-/-OBz, (±)-Benzoic acid 2-(3-diisopropylamino-1-phenylpropyl)-4-acetoxymethylphenyl ester], the IC50 in data set [1] turned out to be 5400 nM.

With `CC(=O)OCc1ccc(OC(=O)C(C)C)c(C(CCN(C(C)C)C(C)C)c2ccccc2)c1` (racemic) [AcO-/-OiBut, (±)-Isobutyric acid 4-acetoxymethyl-2-(3-diisopropylamino-1-phenylpropyl)-phenyl ester], the IC50 in data set [1] worked out at 3600 nM.

With `CC(C)N(CCC(c1ccccc1)c1cc(COC(=O)c2ccccc2)ccc1OC(=O)c1ccccc1)C(C)C` (racemic) [BzO-/-OBz, (±)-Benzoic acid 4-benzoyloxymethyl-2-(3-diisopropylamino-1-phenylpropyl)-phenyl ester], the IC50 in data set [1] was 2400 nM.

`CC(C)N(CCC(c1ccccc1)c1cc(CO)ccc1O)C(C)C` (racemic) [HO-/-OH, (±)-2-(3-Diisopropylamino-1-phenylpropyl)-4-hydroxymethylphenol, reference compound]: the Flux rate in data set [2] turned out to be 3 μg/cm^2/24 hrs.

`CC(C)C(=O)Oc1ccc(CO)cc1C(CCN(C(C)C)C(C)C)c1ccccc1` (racemic) [HO-/-OiBut, (±)-Isobutyric acid 2-(3-diisopropylamino-1-phenylpropyl)-4-hydroxymethylphenyl ester] returned a Flux rate in data set [2] of 150 μg/cm^2/24 hrs.

Take `CCC(=O)OCc1ccc(OC(=O)CC)c(C(CCN(C(C)C)C(C)C)c2ccccc2)c1` (racemic) [PropO-/-OProp, (±)-Propionic acid 2-(3-diisopropylamino-1-phenylpropyl)-4-propionyloxymethylphenyl ester]: the Flux rate in data set [2] is 70 μg/cm^2/24 hrs.

As for `[2H]C([2H])(O)c1ccc(O)c(C(CCN(C(C)C)C(C)C)c2ccccc2)c1` (racemic) [deuteriated hydroxy-metabolite, (±)-2-(3-Diisopropylamino-1-phenylpropyl)-4-hydroxy-[^2H2]methyl-phenol], the “decreased velocity of formation of the carboxylic acid” value in data set [3] is 10%.

In data set [2], `CC(C)C(=O)OCc1ccc(OC(=O)C(C)C)c(C(CCN(C(C)C)C(C)C)c2ccccc2)c1` (racemic) [iButO-/-OiBut, (±)-Isobutyric acid 2-(3-diisopropylamino-1-phenylpropyl)-4-isobutyryloxymethylphenyl ester] displayed a Flux rate of 60 μg/cm^2/24 hrs.

Turning to `CC(=O)OCc1ccc(OC(=O)C(C)C)c([C@H](CCN(C(C)C)C(C)C)c2ccccc2)c1` [(+)AcO-/-OiBut, R-(+)-isobutyric acid 4-acetoxymethyl-2-(3-diisopropylamino-1-phenylpropyl)-phenyl ester], the IC50 in the data set on guinea-pig ileum is 240 nM.

In turn, `CC(C)N(CC[C@H](c1ccccc1)c1cc(COC(=O)c2ccccc2)ccc1OC(=O)c1ccccc1)C(C)C` [(+)BzO-/-OBz, R-(+)-benzoic acid 4-benzoyloxymethyl-2-(3-diisopropylamino-1-phenylpropyl)-phenyl ester] registered an IC50 in the data set on guinea-pig ileum of 220 nM.

Turning to `CC(C)N(CC[C@H](c1ccccc1)c1cc(CO)ccc1OC(=O)c1ccccc1)C(C)C` [(+)HO-/-OBz, R-(+)-Benzoic acid 2-(3-diisopropylamino-1-phenylpropyl)-4-hydroxymethylphenyl ester], the 50% inhibitory concentration (IC50) turned out to be 172 nM in data set [1] and 180 nM in the data set on guinea-pig ileum.

For `CC(C)N(CC[C@H](c1ccccc1)c1cc(CO)ccc1O)C(C)C` [(+)HO-/-OH, R-(+)-2-(3-Diisopropylamino-1-phenylpropyl)-4-hydroxymethyl-phenol, reference compound], the IC50 in data set [1] is 8.7 nM; with guinea-pig ileum, 20 nM.

As to `CC(C)C(=O)Oc1ccc(CO)cc1[C@H](CCN(C(C)C)C(C)C)c1ccccc1` [(+)HO-/-OiBut, R-(+)-Isobutyric acid 2-(3-diisopropylamino-1-phenylpropyl)-4-hydroxymethylphenyl ester], the IC50 in data set [1] turned out to be 159 nM; in the data set with guinea-pig ileum, 57 nM.

Take `CC(C)N(CC[C@@H](c1ccccc1)c1cc(CO)ccc1O)C(C)C` [(−)HO-/-OH, S-(−)-2-(3-Diisopropylamino-1-phenylpropyl)-4-hydroxymethyl-phenol, reference compound]: the figures for the IC50 (in data set [1]; with guinea-pig ileum) were 1300 nM and 680 nM, respectively.

On to `CCN(CC)CC#CCOC(=O)C(O)(c1ccccc1)C1CCCCC1` (centres unmarked) [oxybutynin], for which the “tissue selectivity in vivo for the urinary bladder over the effect on the salivation” value in data set [4] is reported as “reversed selectivity”.

Regarding `Cc1ccc(O)c([C@H](CCN(C(C)C)C(C)C)c2ccccc2)c1` [tolterodine, Tolterodine], the “tissue selectivity in vivo for the urinary bladder over the effect on the salivation” value in data set [4] is recorded as “favourable tissue selectivity”.

The values above are taken from patent publication US7855230B2, “Derivatives of 3,3-diphenylpropylamines” (UCB Pharma GmbH, priority 1999, dated 2010).
